Earlier results in PMC8025584, “Identification of multipotent drugs for COVID-19 therapeutics with the evaluation of their SARS-CoV2 inhibitory activity” (Computational and Structural Biotechnology Journal, 2021).
Structures can show the parent of a compound that is named as a salt. Where two headings read alike, the source gives them in different places.

Tested on: differentially expressed human proteins in COVID-19
Settings: ref DGIdb, cited from earlier work
[1] = gene CACNA1A, drug-gene interaction listed in DGIdb export
[2] = gene CCR1, drug-gene interaction listed in DGIdb export

**Q.** What does the source list for `COc1ccc(-c2ccc3cc(C(=O)O)ccc3c2)cc1C12CC3CC(CC(C3)C1)C2`?
**A.** interaction_types (gene JUN, drug-gene interaction listed in DGIdb export): antagonist; interaction_types (gene RXRB): agonist

**Q.** For `NC(=O)[C@@H](CCC(F)(F)F)N(Cc1ccc(-c2ncon2)cc1F)S(=O)(=O)c1ccc(Cl)cc1`, which interaction_types (gene PSENEN) is on record?
**A.** inhibitor

**Q.** Which results are given for `C[C@H](NC(=O)C(=O)Nc1ccccc1C(C)(C)C)C(=O)N[C@@H](CC(=O)O)C(=O)COc1c(F)c(F)cc(F)c1F`?
**A.** interaction_types (gene CASP4): inhibitor; interaction_types (gene CASP5): inhibitor

**Q.** Which interaction_types (gene CA1) does the source give for `NS(=O)(=O)c1ccc(S(=O)(=O)Nc2cccc3c(Cl)c[nH]c23)cc1` here?
**A.** inhibitor

**Q.** For `CNC(=O)[C@@H](NC(=O)[C@H](CC(C)C)[C@H](O)C(=O)NO)C(C)(C)C`, which interaction_types (gene MMP8) is on record?
**A.** inhibitor

**Q.** With `CC(C)[C@H](O)C(=O)N[C@@H](C)C(=O)N[C@@H]1C(=O)N(C)CCc2ccccc21` as the molecule, how does the interaction_types (gene PSENEN) read?
**A.** inhibitor

**Q.** For `C1CCC2(C1)C1CN(CC3CC3)CC2CN(CC2CC2)C1`, which interaction_types (gene KCNH7) is on record?
**A.** blocker

**Q.** With `COc1ccc(CCN(C)CCCC(C#N)(c2ccc(OC)c(OC)c2)C(C)C)cc1OC` (stereo not shown) as the molecule, how does the interaction_types [1] read?
**A.** inhibitor

**Q.** With `CC(=O)Nc1nnc(S(N)(=O)=O)s1` [ACETAZOLAMIDE] as the molecule, how does the interaction_types (gene CA1) read?
**A.** inhibitor

**Q.** With `COc1cc(C)c(/C=C/C(C)=C/C=C/C(C)=C/C(=O)O)c(C)c1C` [ACITRETIN] as the molecule, how does the interaction_types (gene RXRB) read?
**A.** agonist

**Q.** Which interaction_types (gene P2RY13) does the source give for `Nc1ncnc2c1ncn2[C@@H]1O[C@H](COP(=O)(O)OP(=O)(O)O)[C@@H](O)[C@H]1O` [ADENOSINE DIPHOSPHATE] here?
**A.** agonist

**Q.** For `Nc1ncnc2c1ncn2[C@@H]1O[C@H](COP(=O)(O)O)[C@@H](O)[C@H]1O` [ADENOSINE PHOSPHATE], which interaction_types (gene PRKAB1) is on record?
**A.** activator

**Q.** With `Nc1ncnc2c1ncn2[C@@H]1O[C@H](COP(=O)(O)OP(=O)(O)OP(=O)(O)O)[C@@H](O)[C@H]1O` [ADENOSINE TRIPHOSPHATE] as the molecule, how does the interaction_types (gene P2RY13) read?
**A.** agonist

**Q.** With `Nc1ncnc2c1ncn2[C@@H]1O[C@H](CO)[C@@H](O)[C@H]1O` [ADENOSINE, reference compound] as the molecule, how does the interaction_types (gene PI4K2B) read?
**A.** inhibitor

**Q.** Which interaction_types (gene RXRB) does the source give for `CC1=C(/C=C/C(C)=C\C=C\C(C)=C\C(=O)O)C(C)(C)CCC1` [ALITRETINOIN, reference compound] here?
**A.** agonist

**Q.** With `CCCCc1c(-c2ccc(OC)cc2)[nH]c2nccnc12` [ALOISINE] as the molecule, how does the interaction_types (gene PTK2B) read?
**A.** inhibitor

**Q.** With `CCC1(c2ccc(N)cc2)CCC(=O)NC1=O` (stereo not shown) [AMINOGLUTETHIMIDE, reference compound] as the molecule, how does the interaction_types (gene CYP19A1) read?
**A.** inhibitor

**Q.** Which interaction_types (gene S100A12) does the source give for `CC(C)c1ccc2oc3nc(N)c(C(=O)O)cc3c(=O)c2c1` [AMLEXANOX, reference compound] here?
**A.** antagonist

**Q.** What about the interaction_types (gene S100A13, drug-gene interaction listed in DGIdb export) of the same molecule?
**A.** antagonist

**Q.** With `CCOC(=O)C1=C(COCCN)NC(C)=C(C(=O)OC)C1c1ccccc1Cl` (stereo not shown) [AMLODIPINE] as the molecule, how does the interaction_types (gene CA1) read?
**A.** inhibitor

**Q.** With `CC(C)(C#N)c1cc(Cn2cncn2)cc(C(C)(C)C#N)c1` [ANASTROZOLE] as the molecule, how does the interaction_types (gene CYP19A1) read?
**A.** inhibitor

**Q.** With `Cc1c(CN2CCN(C(=O)[C@H](C)O)CC2)sc2c(N3CCOCC3)nc(-c3cnc(N)nc3)nc12` [APITOLISIB] as the molecule, how does the interaction_types (gene FGR) read?
**A.** inhibitor

**Q.** For `C[C@H]1[C@@H](O)O[C@@H]2O[C@@]3(C)CC[C@H]4[C@H](C)CC[C@@H]1[C@@]24OO3` [ARTENIMOL], which interaction_types (gene PFN1) is on record?
**A.** ligand

**Q.** For `C[C@H]1CC(CN)(CC(=O)O)C[C@@H]1C` [ATAGABALIN], which interaction_types [1] is on record?
**A.** modulator

**Q.** With `Nc1ccc(SC[C@@H]2CO[C@](CCc3ccc(Cl)cc3)(Cn3ccnc3)O2)cc1` [AZALANSTAT] as the molecule, how does the interaction_types (gene CYP19A1) read?
**A.** inhibitor

**Q.** With `CNC(=O)c1cc(Cl)c(OC(C)(C)C(=O)O)cc1OC[C@@H](O)CN1CCC2(CC1)Cc1cc(Cl)ccc1O2` [AZD4818] as the molecule, how does the interaction_types [2] read?
**A.** antagonist

**Q.** For `CCS(=O)(=O)N1CC(CC#N)(n2cc(-c3ncnc4[nH]ccc34)cn2)C1` [BARICITINIB], which interaction_types (gene GAK, drug-gene interaction listed in DGIdb export) is on record?
**A.** inhibitor

**Q.** And the interaction_types (gene PTK2B)?
**A.** inhibitor

**Q.** For `O=S(=O)(N[C@H](CO)C(C(F)(F)F)C(F)(F)F)c1ccc(Cl)s1` [BEGACESTAT], which interaction_types (gene PSENEN) is on record?
**A.** inhibitor

**Q.** Which interaction_types (gene CA1) does the source give for `NS(=O)(=O)c1cc2c(cc1C(F)(F)F)NC(Cc1ccccc1)NS2(=O)=O` (stereo not shown) [BENDROFLUMETHIAZIDE] here?
**A.** inhibitor

**Q.** With `NS(=O)(=O)c1nnc(NS(=O)(=O)c2ccccc2)s1` [BENZOLAMIDE] as the molecule, how does the interaction_types (gene CA1) read?
**A.** inhibitor

**Q.** For `NS(=O)(=O)c1cc2c(cc1Cl)N=C(CSCc1ccccc1)NS2(=O)=O` [BENZTHIAZIDE, reference compound], which interaction_types (gene CA1) is on record?
**A.** inhibitor

**Q.** For `CC(C)COCC(CN(Cc1ccccc1)c1ccccc1)N1CCCC1` (stereo not shown) [BEPRIDIL HYDROCHLORIDE], which interaction_types [1] is on record?
**A.** blocker

**Q.** Which interaction_types [1] does the source give for `CC(C)COCC(CN(Cc1ccccc1)c1ccccc1)N1CCCC1` (stereo not shown) [BEPRIDIL] here?
**A.** inhibitor

**Q.** With `C=C(c1ccc(C(=O)O)cc1)c1cc2c(cc1C)C(C)(C)CCC2(C)C` [BEXAROTENE, reference compound] as the molecule, how does the interaction_types (gene RXRB) read?
**A.** activator¦agonist

**Q.** With `CC(C)(Oc1ccc(CCNC(=O)c2ccc(Cl)cc2)cc1)C(=O)O` [BEZAFIBRATE] as the molecule, how does the interaction_types (gene RXRB) read?
**A.** agonist

**Q.** With `O=C(O)Cc1cccc(-c2cc(CCCCCCc3ccc(O[C@H]4O[C@H](CO)[C@@H](O)[C@H](O)[C@@H]4O)c(-c4cccc(CC(=O)O)c4)c3)ccc2O[C@H]2O[C@H](CO)[C@@H](O)[C@H](O)[C@@H]2O)c1` [BIMOSIAMOSE] as the molecule, how does the interaction_types (gene SELL) read?
**A.** inhibitor

**Q.** Which interaction_types [1] does the source give for `C=CCC1=C(C)C(OC(=O)[C@@H]2[C@@H](C=C(C)C)C2(C)C)CC1=O` (stereo partly shown) [BIOALLETHRIN] here?
**A.** blocker

**Q.** For `CC(C)[C@@H](NC(=O)NCC(C)(C)O)C(=O)N1CC[C@](O)(c2ccc(Cl)cc2)C(C)(C)C1` [BMS-817399], which interaction_types [2] is on record?
**A.** antagonist

**Q.** With `COc1cc(Nc2c(C#N)cnc3cc(OCCCN4CCN(C)CC4)c(OC)cc23)c(Cl)cc1Cl` [BOSUTINIB] as the molecule, how does the interaction_types (gene HCK, drug-gene interaction listed in DGIdb export) read?
**A.** inhibitor

**Q.** For `CCN[C@H]1CN(CCCOC)S(=O)(=O)c2sc(S(N)(=O)=O)cc21` [BRINZOLAMIDE], which interaction_types (gene CA1) is on record?
**A.** inhibitor

**Q.** For `CO[C@H]1C(=O)[C@]2(C)[C@@H](OC)C[C@H]3OC[C@@]3(OC(C)=O)[C@H]2[C@H](OC(=O)c2ccccc2)[C@]2(O)C[C@H](OC(=O)[C@H](O)[C@@H](NC(=O)OC(C)(C)C)c3ccccc3)C(C)=C1C2(C)C` [CABAZITAXEL, reference compound], which interaction_types (gene TUBA4A) is on record?
**A.** inhibitor¦binder

**Q.** For `COc1ccccc1OCCNCC(O)COc1cccc2[nH]c3ccccc3c12` (stereo not shown) [CARVEDILOL, reference compound], which interaction_types (gene KCNJ2) is on record?
**A.** inhibitor

**Q.** Which interaction_types [2] does the source give for `COc1cc(N2CCN(C(=O)Cn3nc(-c4ncc[nH]4)c4cccnc43)CC2)ccc1Cl` [CCX354] here?
**A.** antagonist

**Q.** With `COc1ccc(S(=O)(=O)N(Cc2cccnc2)[C@@H](C(=O)NO)C(C)C)cc1` [CGS-27023A] as the molecule, how does the interaction_types (gene MMP8) read?
**A.** inhibitor

**Q.** With `CCN(CC)CCCC(C)Nc1ccnc2cc(Cl)ccc12` (stereo not shown) [CHLOROQUINE] as the molecule, how does the interaction_types (gene TNF, drug-gene interaction listed in DGIdb export) read?
**A.** inhibitor

**Q.** With `NS(=O)(=O)c1cc2c(cc1Cl)N=CNS2(=O)=O` [CHLOROTHIAZIDE] as the molecule, how does the interaction_types (gene CA1) read?
**A.** inhibitor

**Q.** With `NS(=O)(=O)c1cc(C2(O)NC(=O)c3ccccc32)ccc1Cl` (stereo not shown) [CHLORTHALIDONE, reference compound] as the molecule, how does the interaction_types (gene CA1) read?
**A.** inhibitor

**Q.** For `CC(C)CCC[C@@H](C)[C@H]1CC[C@H]2[C@@H]3CC=C4C[C@@H](O)CC[C@]4(C)[C@H]3CC[C@]12C` [CHOLESTEROL], which interaction_types (gene CLEC4E) is on record?
**A.** ligand

**Q.** For `O=c1cc(-c2ccccc2)oc2cc(O)cc(O)c12` [CHRYSIN], which interaction_types (gene CYP1A1) is on record?
**A.** inhibitor

**Q.** Which interaction_types (gene SLC25A4) does the source give for `O=P(O)(O)C(Cl)(Cl)P(=O)(O)O` [CLODRONIC ACID] here?
**A.** inhibitor

**Q.** For `COc1cc2c(c(OC)c1OC)-c1ccc(OC)c(=O)cc1[C@@H](NC(C)=O)CC2` [COLCHICINE], which interaction_types (gene TUBA4A) is on record?
**A.** inhibitor

**Q.** For `COc1cc([C@H]2C(C#N)=C(N)Oc3c2ccc(N)c3N)cc(Br)c1OC` [CROLIBULIN], which interaction_types (gene TUBA4A) is on record?
**A.** inhibitor
